{
  "source": "patent US10113200B2",
  "about": "“Genes associated with dasatinib sensitivity” (MEMORIAL SLOAN-KETTERING CANCER CENTER, priority 2012, dated 2018)",
  "origin": "cited, not measured here",
  "tested_on": "patients with chronic phase CML",
  "details": "100 mg once-daily compared with 70 mg twice-daily",
  "data": [
    {"smiles": "Cc1nc(Nc2ncc(C(=O)Nc3c(C)cccc3Cl)s2)cc(N2CCN(CCO)CC2)n1", "note": "[dasatinib]", "values": [
      {"measurement": "safety profile", "result": "improves the safety profile, particularly decreasing pleural effusion and thrombocytopenia, while maintaining efficacy"}
    ]}
  ]
}
